Here are results for four molecules from US11505784B2, “Cell culture medium” (BOEHRINGER INGELHEIM INTERNATIONAL GMBH, priority 2015, dated 2022).

Where two headings read alike, the source gives them in different places.

Experiment [1] has as its system CHO2 (CHO-DG44) cells producing Rituximab. Put plainly: Fed-batch shake flask comparison of iron carriers in basal medium 6.2a (Example 7). It is filed as cell-based, Chinese hamster. As for the experimental part:
Basal medium 6.2a is a precursor medium that is almost identical to basal medium 6.2 except for additionally comprising some non-essential cofactors and nucleotides and containing no succinic acid, putrescine at only 4.8 mg/l and a total amino acid concentration of 40 mM instead of 44 mM. Further Glutamine was added at a lower amount resulting in a ratio relative to isoleucine of 37.42.
Feed medium 6.2a is a precursor medium that is almost identical to feed medium 6.2 except for additionally comprising some non-essential cofactors and nucleotides and slightly higher sodium bicarbonate and containing putrescine at only 33.02 mg/l and a total amino acid concentration of 511 mM instead of 508 mM. Further alanine was additionally present in the medium with a ratio relative to isoleucine of 0.15.
Experiments were performed in duplicates (N=2).

For experiment [2], the system named is CHO2 (CHO-DG44) Rituximab cells. As to conditions: 0.1 g/l (so in the source) in RPMI based basal medium 3.1; feed medium 2 with 0.25 g/l iron citrate; 2 L bioreactor.
Procedure: Cell concentrations and cell viabilities were determined by the trypan blue exclusion method using a CEDEX (Type 5.00, version 2.2) automated cell analyzer (Roche Innovatis, Bielefeld, Germany). The concentrations of produced recombinant proteins in the medium, such as IgG antibodies were quantified by a Konelab 60i (Thermo Scientific, Dreieich, Germany) analyzer based on photometrical methods or by the use of a HPLC method. The Konelab 60i instrument was also used for the quantification of metabolites such as glucose, lactic acid (lactate), glutamine, glutamate, and ammonium in the cell culture supernatants. Amino acid concentrations were determined by use of a GC 6890N/FID gas chromatograph (Agilent Technologies GmbH & Co.KG, Waldbronn, Germany). Amino acid analysis was performed by the EZ-faast protocol from Phenomenex (Aschaffenburg, Germany). Osmolarity profiles were analyzed by an osmomat auto device (Gonotec GmbH, Berlin, Germany). This method is based on the cryoscopic freezing point of a particular solution, which is proportional to the amount of dissolved particles. Dissolved carbon dioxide pCO2, dissolved oxygen pO2 and pH were determined on a daily basis with a Rapidlab 248/348 instrument (Siemens Healthcare Diagnostics GmbH, Eschborn, Germany). […]
The test system of experiment [3] is CHO2 (CHO-DG44) cells producing Rituximab. As to conditions: for product titer: feed medium 2 with 0.25 g/l iron citrate.
Procedure: Cell concentrations and cell viabilities were determined by the trypan blue exclusion method using a CEDEX (Type 5.00, version 2.2) automated cell analyzer (Roche Innovatis, Bielefeld, Germany). The concentrations of produced recombinant proteins in the medium, such as IgG antibodies were quantified by a Konelab 60i (Thermo Scientific, Dreieich, Germany) analyzer based on photometrical methods or by the use of a HPLC method. The Konelab 60i instrument was also used for the quantification of metabolites such as glucose, lactic acid (lactate), glutamine, glutamate, and ammonium in the cell culture supernatants. Amino acid concentrations were determined by use of a GC 6890N/FID gas chromatograph (Agilent Technologies GmbH & Co.KG, Waldbronn, Germany). Amino acid analysis was performed by the EZ-faast protocol from Phenomenex (Aschaffenburg, Germany). Osmolarity profiles were analyzed by an osmomat auto device (Gonotec GmbH, Berlin, Germany). This method is based on the cryoscopic freezing point of a particular solution, which is proportional to the amount of dissolved particles. Dissolved carbon dioxide pCO2, dissolved oxygen pO2 and pH were determined on a daily basis with a Rapidlab 248/348 instrument (Siemens Healthcare Diagnostics GmbH, Eschborn, Germany).
The experiment was performed in 250 ml shake flasks with a starting volume of 60 ml.
Shake flasks were incubated at 37° C. in an incubator (10% CO2 atmosphere was provided from day 0 to 3 followed by 5% CO2 for one day and 0% CO2 until the end of the cultivation). Feeding solution was added every day at a feed rate of 30 ml/L/d starting on day two. Glucose was fed on demand to maintain the actual glucose concentration between 2-4 g/l over the cultivation period. Total cells, viable cells, viability, product concentration, glucose concentration, lactic acid concentration, ammonium concentration and osmolarity were measured every second day until the end of cultivation to monitor and control the experimental progress. Experiments were performed in duplicates (N=2).

As to `O=P([O-])([O-])[O-].[Fe+3]` [iron phosphate], the product titer in experiment [1] (iron carrier 0.3 g/L in basal medium 6.2a, feed medium 6.2a without iron choline citrate) is on record as 2.29 g/L.
Regarding `O=P([O-])([O-])OP(=O)([O-])[O-].O=P([O-])([O-])OP(=O)([O-])[O-].O=P([O-])([O-])OP(=O)([O-])[O-].[Fe+3].[Fe+3].[Fe+3].[Fe+3]` [iron pyro phosphate], in experiment [1] (iron carrier 1.3 g/L in basal medium 6.2a, feed medium 6.2a without iron choline citrate), the product titer was 2.26 g/L.
Consider iron citrate, for which the product titer in experiment [1] (parallel experiment: 0.1 g/L in basal medium 6.2a, feed medium 6.2a with 0.25 g/l iron citrate) was determined as 2.38 g/L; in experiment [2], 0.200 g/L; in experiment [3] (0.1 g/L in basal medium 3.1) it was 0.184 g/L; in experiment [3] (0.2 g/L in basal medium 3.1), 0.200 g/L; in experiment [3] (1.0 g/L in basal medium 3.1), 0.201 g/L. The same molecule registered a titer in experiment [3] (1.0 g/L in basal medium 3.1) of 201 mg/L.
Regarding `C[N+](C)(C)CCO.O=C([O-])CC(O)(CC(=O)[O-])C(=O)[O-].[Fe+2]` [iron choline citrate], in experiment [3] (equimolar application, data not shown), the “osmolarity of the culture compared to equimolar iron citrate (in words)” value is listed as “lower osmolarity values”.
